Laboratory results: the supplement of paper PMC10307832

How the values were obtained:
Assay in all cases: relative viability (nuclei count vs DMSO), 5 days (fraction); higher = more cells survive
[1] = compound: Cc1cc([C@@H](C)Nc2ccccc2C(=O)O)c2nc(N3CCOCC3)cc(=O)n2c1 [AZD6482] + CC(=O)c1c(C)c2cnc(Nc3ccc(N4CCNCC4)cn3)nc2n(C2CCCC2)c1=O [Palbociclib] (partner 0.5 µM)
Summary of the method: (§1)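 Dosing by pin tool came one day after lung cancer cell lines were seeded in 1536-well plates, using either one drug or a fixed anchor-drug dose plus five library-drug doses (not always all listed) in √10 steps. After 5 days, nuclei were counted on 4× images. Relative viability is treated-well nuclei count divided by vehicle-well nuclei count, and values are medians of duplicate plates.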

[2] = compound: COc1cc2nc(N3CCCN(C)CC3)nc(NC3CCN(Cc4ccccc4)CC3)c2cc1OC + C[C@]1(O)C[C@@H](c2nc(-c3ccc4ccc(-c5ccccc5)nc4c3)c3c(N)nccn32)C1 [Linsitinib] (partner 1 µM)
Summary of the method: as §1

[3] = compound: Cc1cc([C@@H](C)Nc2ccccc2C(=O)O)c2nc(N3CCOCC3)cc(=O)n2c1 [AZD6482] + Cc1nc(Nc2ncc(C(=O)Nc3c(C)cccc3Cl)s2)cc(N2CCN(CCO)CC2)n1 [Dasatinib] (partner 0.075 µM)
Summary of the method: as §1

[4] = compound: COc1cc2nc(N3CCCN(C)CC3)nc(NC3CCN(Cc4ccccc4)CC3)c2cc1OC + CC(C)C[C@H](NC(=O)[C@H](Cc1ccccc1)NC(=O)c1cnccn1)B(O)O [Bortezomib] (partner 0.002 µM)
Summary of the method: as §1

| Cell Line | relative viability ([1]; first compound 0.08 µM) | relative viability ([1]; first compound 0.253 µM) | relative viability ([1]; first compound 0.8 µM) | relative viability ([1]; first compound 2.53 µM) | relative viability ([1]; first compound 8 µM) | relative viability ([2]; first compound 0.2 µM) | relative viability ([2]; first compound 0.6325 µM) | relative viability ([2]; first compound 2 µM) | relative viability ([2]; first compound 6.325 µM) | relative viability ([3]; first compound 0.253 µM) | relative viability ([3]; first compound 0.8 µM) | relative viability ([3]; first compound 2.53 µM) | relative viability ([3]; first compound 8 µM) | relative viability ([4]; first compound 0.2 µM) | relative viability ([4]; first compound 0.6325 µM) | relative viability ([4]; first compound 2 µM) | relative viability ([4]; first compound 6.325 µM) | relative viability ([3]; first compound 0.08 µM) |
| --- | --- | --- | --- | --- | --- | --- | --- | --- | --- | --- | --- | --- | --- | --- | --- | --- | --- | --- |
| NCI-H2228 | 0.374 | 0.565 | 0.682 | 0.653 | 0.679 | 0.59 | 0.587 | 0.83 | 0.476 | 0.367 | 0.461 | 0.427 | 0.455 | 0.91 | 0.841 | 1.47 | 0.519 |  |
| NCI-H2347 | 0.35 | 0.389 | 0.406 | 0.394 | 0.389 | 0.936 | 0.927 | 0.882 | 0.922 | 0.244 | 0.262 | 0.298 | 0.281 | 1.04 | 0.846 | 1.08 | 1.07 | 0.271 |
| NCI-H2405 | 0.378 | 0.495 | 0.526 | 0.455 | 0.413 | 0.934 | 0.975 | 0.979 | 0.809 |  | 0.232 | 0.206 | 0.191 | 0.978 | 0.987 | 1.04 | 0.971 | 0.161 |
| NCI-H3122 | 0.192 | 0.198 | 0.168 | 0.155 | 0.154 | 1.01 | 1.01 | 1.03 | 1.06 | 0.828 | 0.94 | 0.361 | 0.695 | 0.97 | 0.966 | 1.07 | 0.989 | 0.775 |
| PC-3 [JPC-3] | 0.559 | 0.564 | 0.528 | 0.572 | 0.534 | 1 | 0.931 | 1.01 | 0.903 | 0.959 | 0.898 | 0.769 | 0.791 | 0.793 | 0.787 | 0.962 | 0.675 | 0.887 |
| PC-14 | 0.447 | 0.524 | 0.578 | 0.503 | 0.519 | 0.923 | 0.91 | 1.02 | 0.865 | 0.281 | 0.239 | 0.197 | 0.16 | 0.984 | 0.72 | 0.981 | 0.461 | 0.245 |
| RERF-LC-KJ | 0.961 | 0.981 | 1.03 | 0.838 | 0.808 | 0.883 | 0.856 | 0.894 | 0.886 | 0.77 | 0.762 | 0.706 | 0.682 | 1.12 | 1.08 | 1.14 | 1.02 | 0.586 |
| SK-LU-1 |  | 0.346 | 0.376 | 0.315 | 0.387 | 0.996 | 1.07 | 0.886 | 0.724 | 0.165 | 0.18 | 0.152 | 0.165 | 1.14 | 1.19 | 1.5 | 1.07 |  |
| SW 1573 | 0.296 | 0.351 | 0.328 | 0.282 | 0.218 | 0.74 | 0.806 | 0.768 | 0.758 | 0.357 | 0.328 | 0.239 | 0.206 | 1.16 | 0.893 | 0.882 | 0.853 | 0.459 |
